Measurements: US12303614B2, “Compositions and methods for improving mechanical properties of a tissue or for regenerating an injured or diseased tissue” (University of Rochester, priority 2019, dated 2025)
“Also recorded” adds a separate entry of the source.

Columns and labels:
[1] = system: HH43 chick embryo calcaneal tendons; experiment: Calcaneal tendon elastic modulus by force volume-AFM after in ovo treatment; format: in vivo; conditions: HH43 chick embryos, 48 h; for calcaneal tendon elastic modulus relative to controls: single in ovo injection, vs saline
Protocol: (§1) Fertilized white leghorn eggs (University of Connecticut poultry farm) were incubated at 37° C. under high humidity. For developmental characterizations, eggs were not injected. For other experiments, a single dose of sterile saline (control), 0.2% DMB (rigid paralysis), 0.2% pancuronium bromide (PB) (flaccid paralysis), 0.2% 4-AP (hypermotility), or 0.2% 4-AP and 5 mg BAPN per gram of embryo dry mass (to simultaneously induce hypermotility and inhibition of LOX activity) was injected at the air sac end of an HH43 egg and incubated for another 48 h, as previously described (10). DMB dosage was based on previous studies that paralyzed the embryo without affecting gross development (3). […] At specific timepoints, chick embryos were sacrificed by decapitation and staged based on anatomical features (15). The calcaneal tendon was homogenized in TRIzol LS reagent, snap frozen for protein and enzyme assays, or embedded for cryosectioning.
(§2) Calcaneal tendons of staged embryos were cryoembedded as previously described (10) and cryosectioned at 50 μm thickness.
Force volume-AFM was used to characterize tendon elastic modulus using previously established methods (10). Briefly, tendon cryosections were immersed in PBS to remove O.C.T. A silicon nitride tip probe (˜20 nm radius) with a spring constant of 0.06 N/m (BRUKER, CA) was used on an MFP-3D AFM (ASYLUM RESEARCH, CA) to obtain force curves in a 64×64 2-dimensional array over a 10 μm×10 μm tissue region in the center of the tendon midsubstance with a 1.0 μm indentation trigger point. The sample was indented at 6 μm/s, at which tendon elastic properties were previously characterized with negligible viscous effects (10). Elastic modulus was calculated by fitting force displacement curves at each indentation to the Hertzian model using equations adapted from a previous study (10).

[2] = system: HH43 chick embryo calcaneal tendons; experiment: Fibrillar collagen content and organization by F-SHG two photon microscopy; format: in vivo; conditions: HH43 chick embryos, 48 h
Protocol: as §1, §2
Tendon cryosections were immersed in Ca^2+/Mg^2+-free phosphate buffered saline (PBS) to remove O.C.T. A 20× water objective imaged a 220×220 μm region in the center of tendon midsubstance in PBS. Collagen was characterized by F-SHG at 800 nm excitation, and signal was collected by a photomultiplier tube using a 405DF30 filter. Background was determined with laser off. Background was subtracted from each F-SHG image using MATLAB (MATHWORKS, MA) and then average pixel intensities of each image were calculated to assess collagen content per unit area.

LOX activity = LOX activity assay of calcaneal tendons after in ovo treatment; format: in vivo, chick; conditions: HH43 embryos treated in ovo, 48 h; for reduction of LOX activity levels of calcaneal tendons compared to saline controls: p<0.05
Protocol: as §1
Western blot to semi-quantitatively measure proLOX levels was performed with rabbit anti-proLOX antibody or rabbit anti-β-actin antibody (ABCAM, MA). ProLOX and β-actin levels were quantified by densitometry at ˜50 kDa and ˜40 kDa molecular bands, respectively. LOX activity of each sample was measured using a LOX activity assay kit (ABCAM, MA). Recombinant LOXL2 enzyme (R&D Systems, MN) was used as a positive control for each assay.

HH43 chick embryos = experiment: Gross development: anatomical staging and leg appearance of treated embryos; format: in vivo
Protocol: as §1

[3] = system: HH43 chick embryo calcaneal tendons; experiment: Collagen crosslink density analysis (HP/collagen) after paralysis; format: in vivo; conditions: HH43 chick embryos, injections at 0 h and 24 h, 48 h of paralysis
Protocol: Briefly, HH43 chick embryos were either treated with saline (vehicle control), decamethonium bromide (DMB, THERMO FISHER), or pancuronium bromide (PB, THERMO FISHER). Treatments of DMB and PB were performed at 0 h and 24 h by injection through the air-pocket of each egg. After the 48 h of treatments, each embryo was sacrificed by decapitation, was staged, and the calcaneal tendons were dissected for collagen cross-link density analysis. For each biological sample (N=1), 5 tendons were pooled together (5 left calcaneal tendons from 5 chick embryos). In this experiment, collagen crosslink density analysis was performed for biological samples.

chick embryos [4] = experiment: Embryo movement frequency after injection; format: in vivo; conditions: within 1 min of injection, lasted 48 h (data not shown)
Protocol: as §1

chick embryos [5] = conditions: HH36 to HH44 chick embryos, for at least 24 h, previous studies (14); cited from earlier work
[6] = treated at HH43, harvested after 48 h, compared with non-injected HH45
[7] = treated at HH43 for 48 h, N ≥ 6, expected stage HH45

In the case of C[N+](C)(C)CCCCCCCCCC[N+](C)(C)C [DMB, decamethonium bromide], the “reduction of calcaneal tendon modulus relative to controls” value ([1]; paralysis) is reported as 2 fold, the “calcaneal tendon elastic modulus relative to controls” value [1] is reported as “significantly reduced” and the apparent collagen organization [2] is reported as “Neither treatment affected”. For the same compound, the “collagen content relative to controls” value [2] was “Neither treatment affected”, the “LOX activity levels in calcaneal tendons compared to controls” value (LOX activity) was “significantly reduced” and the “reduction of LOX activity levels of calcaneal tendons compared to saline controls” value (LOX activity) was 2 fold. For the same compound, the “Stage (HH) of embryos at harvest (mean ± standard deviation (std))” value (“Stage (HH) … (mean ± standard deviation (std))” below) (HH43 chick embryos; in vivo) was 45 ± 0.4 HH, the “gross appearance of legs at harvest” value (HH43 chick embryos; in vivo) was “hyperextended digits” and the “hydroxylysyl pyridinoline (HP)/collagen ratio compared to saline-treated tendons” value [3] was “lower”.
For Nc1ccncc1 [4-AP, 4-aminopyridine], the “increase of calcaneal tendon modulus relative to controls” value ([1]; hypermotility) was 2 fold, the “calcaneal tendon elastic modulus relative to controls” value [1] was “significantly upregulated; also recorded: higher” and the apparent collagen organization [2] was “Neither treatment affected; also recorded: appeared normal”. The “collagen content relative to controls” value [2] was “Neither treatment affected”, the “LOX activity levels in calcaneal tendons compared to controls” value (LOX activity) was “no effects” and the “gross appearance of legs at harvest” value (HH43 chick embryos; [6]) was “appeared similar to non-injected HH45 legs”. For the same compound, the “Stage (HH) … (mean ± standard deviation (std))” value (HH43 chick embryos; [7]) was 45 ± 0.4 HH, the “increase of embryo movement frequency” value (chick embryos [4]) was 200% and the “hypermotility induced by a single injection” value (chick embryos [5]) was “up to 400%”.
With N#CCCN [BAPN, β-aminopropionitrile] the “calcaneal tendon elastic modulus relative to controls” value [1] was “reduced”, the apparent collagen organization [2] was “appeared normal” and the “gross appearance of legs at harvest” value (HH43 chick embryos; [6]) was “appeared similar to non-injected HH45 legs”. For the same compound, the “Stage (HH) … (mean ± standard deviation (std))” value (HH43 chick embryos; [7]) was 45 ± 0.5 HH.
In the case of CC(=O)O[C@H]1C[C@@H]2CC[C@@H]3[C@H](CC[C@@]4(C)[C@H]3C[C@H]([N+]3(C)CCCCC3)[C@@H]4OC(C)=O)[C@@]2(C)C[C@@H]1[N+]1(C)CCCCC1 [PB, pancuronium bromide], the “LOX activity levels in calcaneal tendons compared to controls” value (LOX activity) is reported as “significantly lower”, the “reduction of LOX activity levels of calcaneal tendons compared to saline controls” value (LOX activity) is reported as 2 fold and the “hydroxylysyl pyridinoline (HP)/collagen ratio compared to saline-treated tendons” value [3] is reported as “lower”.
